# Assays:
# [1] = target: Cytochrome P450 3A4 (Homo sapiens, UniProt P08684); assay: Inhibition of CYP3A4 in human liver microsomes using midazolam as substrate after 10 mins by LC/MS/MS analysis
# [2] = system: Human immunodeficiency virus 1; assay: Antiviral activity against wild type HIV1 3B infected in human MT4 LTR-EGFP cells by EGFP reporter gene assay; assay type: functional, organism-based; details: Human immunodeficiency virus 1, 3B
# Cytochrome P450 3A4, sequence (P08684 whole entry): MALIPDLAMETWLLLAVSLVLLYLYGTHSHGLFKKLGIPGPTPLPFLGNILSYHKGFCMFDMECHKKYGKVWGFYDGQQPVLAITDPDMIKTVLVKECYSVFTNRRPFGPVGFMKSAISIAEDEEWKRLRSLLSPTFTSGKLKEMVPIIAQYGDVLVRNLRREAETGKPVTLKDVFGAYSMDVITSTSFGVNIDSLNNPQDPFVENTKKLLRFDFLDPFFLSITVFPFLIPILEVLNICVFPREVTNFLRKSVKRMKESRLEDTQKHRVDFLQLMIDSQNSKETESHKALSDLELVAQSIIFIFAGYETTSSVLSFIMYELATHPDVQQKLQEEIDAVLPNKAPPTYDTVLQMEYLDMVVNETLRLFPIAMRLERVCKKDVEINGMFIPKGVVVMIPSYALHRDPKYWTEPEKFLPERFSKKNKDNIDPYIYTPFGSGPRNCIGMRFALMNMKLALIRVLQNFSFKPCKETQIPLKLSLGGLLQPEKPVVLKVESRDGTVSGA
SMILES,IC50 [1] [µM],EC50 [2] [µM]
CC(C)CN(C[C@@H](O)[C@H](Cc1ccccc1)NC(=O)OCc1cncs1)C(=O)c1ccc2nc(N3CCOCC3)oc2c1,0.038,> 100
CC(C)CN(C[C@@H](O)[C@H](Cc1ccccc1)NC(=O)OCc1cncs1)C(=O)c1ccc2nc(N3CCN(C)CC3)oc2c1,0.092,> 100
CCN(C)c1nc2ccc(C(=O)N(CC(C)C)C[C@H](O)[C@H](Cc3ccccc3)NC(=O)OCc3cncs3)cc2o1,–,45
CC(C)(C)CN(C[C@@H](O)[C@H](Cc1ccccc1)NC(=O)OCc1cncs1)C(=O)c1ccc2nc(N3CCCC3)oc2c1,0.027,30
Cc1nc2ccc(C(=O)N(CC(C)C)C[C@@H](O)[C@H](Cc3ccccc3)NC(=O)OCc3cncs3)cc2o1,0.052,> 100
CCN(C)c1nc2ccc(C(=O)N(CC(C)C)C[C@@H](O)[C@H](Cc3ccc(F)cc3)NC(=O)OCc3cncs3)cc2o1,0.023,47
CC(C)CN(C[C@H](O)[C@H](Cc1ccccc1)NC(=O)OCc1cncs1)C(=O)c1ccc2nc(N3CCCC3)oc2c1,–,45
CC(C)CN(C[C@@H](O)[C@H](Cc1ccccc1)NC(=O)OCc1cncs1)C(=O)c1ccc2nc(N(C)C)oc2c1,–,47
CCN(C)c1nc2ccc(C(=O)N(CCN(C)C)C[C@@H](O)[C@H](Cc3ccccc3)NC(=O)OCc3cncs3)cc2o1,–,> 100
C#CCN(C[C@@H](O)[C@H](Cc1ccccc1)NC(=O)OCc1cncs1)C(=O)c1ccc2nc(N(C)CC)oc2c1,–,60
CCN(C[C@@H](O)[C@H](Cc1ccccc1)NC(=O)OCc1cncs1)C(=O)c1ccc2nc(N(C)CC)oc2c1,0.079,> 100
CCN(C)c1nc2ccc(C(=O)N(CCN3CCCC3)C[C@@H](O)[C@H](Cc3ccccc3)NC(=O)OCc3cncs3)cc2o1,0.14,> 100
CC(C)CN(C[C@@H](O)[C@H](Cc1ccccc1)NC(=O)OCc1cncs1)C(=O)c1ccc2nc(C(C)C)oc2c1,0.037,45
CC(C)CN(C[C@@H](O)[C@H](Cc1cccnc1)NC(=O)OCc1cncs1)C(=O)c1ccc2ncsc2c1,0.09,> 100
CC(C)CN(C[C@@H](O)[C@H](Cc1ccccc1)NC(=O)OCc1cncs1)C(=O)c1ccc2nc(N)oc2c1,0.042,> 100
O=C(N[C@@H](Cc1ccccc1)[C@H](O)CN(CCN1CCCC1)C(=O)c1ccc2nc(N3CCCC3)oc2c1)OCc1cncs1,0.13,58
CC(C)CN(C[C@@H](O)[C@H](Cc1ccccc1)NC(=O)OCc1cncs1)C(=O)c1ccc2ncoc2c1,0.055,> 100
CC(C)CN(C[C@@H](O)[C@H](Cc1ccccc1)NC(=O)OCc1cncs1)C(=O)c1ccc2nc(NC3CCN(C)CC3)oc2c1,2.7,> 100
CC(C)CN(C[C@@H](O)[C@H](Cc1ccccc1)NC(=O)OCc1cncs1)C(=O)c1ccc2nc(-c3ccncc3)oc2c1,0.024,> 100
CN(C[C@@H](O)[C@H](Cc1ccccc1)NC(=O)OCc1cncs1)C(=O)c1ccc2nc(N3CCCC3)oc2c1,0.084,> 100
CC(C)(O)CN(C[C@@H](O)[C@H](Cc1ccccc1)NC(=O)OCc1cncs1)C(=O)c1ccc2nc(N3CCCC3)oc2c1,–,> 100
CC(C)CN(C[C@@H](O)[C@H](Cc1ccccc1)NC(=O)OCc1cncs1)C(=O)c1ccc2nc(NCCCN(C)C)oc2c1,0.2,60

SMILES,IC50 [1] [µM],EC50 [2] [µM]
CN(C)CCN(C[C@@H](O)[C@H](Cc1ccccc1)NC(=O)OCc1cncs1)C(=O)c1ccc2nc(N3CCCC3)oc2c1,0.23,> 100
CCNc1nc2ccc(C(=O)N(C[C@@H](O)[C@H](Cc3ccccc3)NC(=O)OCc3cncs3)CC(C)(C)O)cc2o1,–,> 100
O=C(N[C@@H](Cc1ccccc1)[C@H](O)CN(CCN1CCOCC1)C(=O)c1ccc2nc(N3CCCC3)oc2c1)OCc1cncs1,0.12,> 100
C#CCN(C)c1nc2ccc(C(=O)N(CC(C)C)C[C@@H](O)[C@H](Cc3ccccc3)NC(=O)OCc3cncs3)cc2o1,0.03,48
CCN(C)c1nc2ccc(C(=O)N(CC(C)C)C[C@@H](O)[C@H](Cc3ccccc3)NC(=O)OCc3ccncc3)cc2o1,0.2,49
CCN(C)c1nc2ccc(C(=O)N(CC(C)C)C[C@@H](O)[C@H](Cc3ccccc3)NC(=O)OCc3ccc4c(c3)OCO4)cc2o1,–,16
CCN(C)c1nc2ccc(C(=O)N(C[C@@H](O)[C@H](Cc3ccccc3)NC(=O)OCc3cncs3)CC(C)(C)C)cc2o1,0.037,48
CCNc1nc2ccc(C(=O)N(CC(C)C)C[C@@H](O)[C@H](Cc3ccccc3)NC(=O)OCc3cncs3)cc2o1,0.028,85
CCN(C)c1nc2ccc(C(=O)N(CCN3CCOCC3)C[C@@H](O)[C@H](Cc3ccccc3)NC(=O)OCc3cncs3)cc2o1,0.14,> 100
CCN(C)c1nc2ccc(C(=O)N(CC3CCCCC3)C[C@@H](O)[C@H](Cc3ccccc3)NC(=O)OCc3cncs3)cc2o1,0.026,21
CCc1nc2ccc(C(=O)N(CC(C)C)C[C@@H](O)[C@H](Cc3ccccc3)NC(=O)OCc3cncs3)cc2o1,0.039,87
CC(C)CN(C[C@@H](O)[C@H](Cc1ccccc1)NC(=O)OCc1cncs1)C(=O)c1ccc2nc(N(C)CCN(C)C)oc2c1,–,63
CCN(C[C@@H](O)[C@H](Cc1ccccc1)NC(=O)OCc1cncs1)C(=O)c1ccc2nc(N3CCCC3)oc2c1,0.06,69
CC(C)CN(C[C@@H](O)[C@H](Cc1ccccc1)NC(=O)OCc1cncs1)C(=O)c1ccc2nc(NCCN(C)C)oc2c1,0.2,> 100
CC(C)c1nc(CN(C)C(=O)N[C@H](C(=O)N[C@@H](Cc2ccccc2)C[C@H](O)[C@H](Cc2ccccc2)NC(=O)OCc2cncs2)C(C)C)cs1 [RITONAVIR],–,0.0015
"CCN(C)c1nc2ccc(C(=O)N(CC(C)C)CC(O)[C@H](Cc3cccnc3)NC(=O)OCc3cncs3)cc2o1 (single isomer, unassigned)",0.069,> 100
CC(C)CN(C[C@@H](O)[C@H](Cc1ccccc1)NC(=O)OCc1cncs1)C(=O)c1ccc2nc(N3CCCC3)oc2c1,0.033,> 100
CC(C)CN(C[C@@H](O)[C@H](Cc1ccccc1)NC(=O)OCc1cncs1)C(=O)c1ccc2nc(N3CCCCC3)oc2c1,–,36
CC(C)CN(C[C@@H](O)[C@H](Cc1ccccc1)NC(=O)OCc1cncs1)C(=O)c1ccc2nc(NCCCn3ccnc3)oc2c1,–,87
O=C(N[C@@H](Cc1ccccc1)[C@H](O)CN(CC1CCCCC1)C(=O)c1ccc2nc(N3CCCC3)oc2c1)OCc1cncs1,0.026,28
O=C(N[C@@H](Cc1ccccc1)[C@H](O)CN(CC1CCC(F)(F)CC1)C(=O)c1ccc2nc(N3CCCC3)oc2c1)OCc1cncs1,0.03,30
CCN(C)c1nc2ccc(C(=O)N(CC(C)C)C[C@@H](O)[C@H](Cc3ccccc3)NC(=O)OCc3cccnc3)cc2o1,0.022,48
